Experimental data: PubChem BioAssay (NCI)
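Cells were grown in 96-well plates and exposed to each compound for 48 hours at five concentrations; endpoints were interpolated linearly between bracketing concentrations, or set to the highest concentration if not reached. TGI is the concentration that stops growth completely.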

Key:
Assay in all cases: growth of human tumour cells (NCI), 48 h
NCI-H226 lung = tested on: NCI-H226 lung
EKVX NSCLC = tested on: EKVX NSCLC
TK-10 renal = tested on: TK-10 renal
SF-268 CNS = tested on: SF-268 CNS
MOLT-4 leukemia = tested on: MOLT-4 leukemia
ACHN renal = tested on: ACHN renal
CCRF-CEM leukemia = tested on: CCRF-CEM leukemia
M14 melanoma = tested on: M14 melanoma
NCI-H522 lung = tested on: NCI-H522 lung
IGROV1 ovarian = tested on: IGROV1 ovarian
SK-MEL-2 melanoma = tested on: SK-MEL-2 melanoma
K-562 leukemia = tested on: K-562 leukemia
KM12 colon = tested on: KM12 colon
SK-MEL-28 melanoma = tested on: SK-MEL-28 melanoma
RXF 393 renal = tested on: RXF 393 renal
HCT-15 colon = tested on: HCT-15 colon
RPMI-8226 leukemia = tested on: RPMI-8226 leukemia
HT29 colon = tested on: HT29 colon
A549 NSCLC = tested on: A549 NSCLC
UACC-62 melanoma = tested on: UACC-62 melanoma
LXFL 529 NSCLC = tested on: LXFL 529 NSCLC
OVCAR-4 ovarian = tested on: OVCAR-4 ovarian
HOP-62 NSCLC = tested on: HOP-62 NSCLC
HCC-2998 colon = tested on: HCC-2998 colon
U251 CNS = tested on: U251 CNS
XF 498 CNS = tested on: XF 498 CNS
SF-539 CNS = tested on: SF-539 CNS
OVCAR-5 ovarian = tested on: OVCAR-5 ovarian
OVCAR-8 ovarian = tested on: OVCAR-8 ovarian
SNB-78 CNS = tested on: SNB-78 CNS
OVCAR-3 ovarian = tested on: OVCAR-3 ovarian
LOX IMVI melanoma = tested on: LOX IMVI melanoma
SF-295 CNS = tested on: SF-295 CNS
MALME-3M melanoma = tested on: MALME-3M melanoma
UO-31 renal = tested on: UO-31 renal
SN12C renal = tested on: SN12C renal
SNB-19 CNS = tested on: SNB-19 CNS
KM20L2 colon = tested on: KM20L2 colon
DMS 273 small cell lung = tested on: DMS 273 small cell lung
HCT-116 colon = tested on: HCT-116 colon
786-0 renal = tested on: 786-0 renal
M19-MEL melanoma = tested on: M19-MEL melanoma
NCI-H460 lung = tested on: NCI-H460 lung
SR leukemia = tested on: SR leukemia
COLO 205 colon = tested on: COLO 205 colon
HL-60(TB) leukemia = tested on: HL-60(TB) leukemia
SW-620 colon = tested on: SW-620 colon
SK-MEL-5 melanoma = tested on: SK-MEL-5 melanoma

Measured: TGI

C[s+]1c2ccccc2c2ccccc21
> 100 µM: NCI-H226 lung | EKVX NSCLC | TK-10 renal | SF-268 CNS | MOLT-4 leukemia | ACHN renal | CCRF-CEM leukemia | M14 melanoma | NCI-H522 lung | IGROV1 ovarian | SK-MEL-2 melanoma | K-562 leukemia | KM12 colon | SK-MEL-28 melanoma | RXF 393 renal | HCT-15 colon | RPMI-8226 leukemia | HT29 colon | A549 NSCLC | UACC-62 melanoma | LXFL 529 NSCLC | OVCAR-4 ovarian | HOP-62 NSCLC | HCC-2998 colon | U251 CNS | XF 498 CNS | SF-539 CNS | OVCAR-5 ovarian | OVCAR-8 ovarian | SNB-78 CNS | OVCAR-3 ovarian | LOX IMVI melanoma | SF-295 CNS | MALME-3M melanoma | UO-31 renal | SN12C renal | SNB-19 CNS | KM20L2 colon | DMS 273 small cell lung | HCT-116 colon | 786-0 renal | M19-MEL melanoma | NCI-H460 lung | SR leukemia | COLO 205 colon | HL-60(TB) leukemia | SW-620 colon | SK-MEL-5 melanoma
